US8952024B2, “Herbicidal pyrimidone derivatives” (E I du Pont de Nemours and Company, priority 2009, dated 2015)

Columns and labels:
Type in all cases: in vivo
[1] = system: barnyardgrass (Echinochloa crus-galli); experiment: Test A pre-/postemergence plant response
From the text: (§1) Seeds of barnyardgrass (Echinochloa crus-galli), large crabgrass (Digitaria sanguinalis), giant foxtail (Setaria faberii), morningglory (Ipomoea spp.), pigweed (Amaranthus retroflexus), velvetleaf (Abutilon theophrasti), wheat (Triticum aestivum) and corn (Zea mays) were planted into a blend of loam soil and sand and treated preemergence with a directed soil spray using test chemicals formulated in a non-phytotoxic solvent mixture which included a surfactant. At the same time these species were also treated with postemergence applications of test compounds formulated in the same manner.
(§2) Plants ranged in height from two to ten cm and were in the one- to two-leaf stage for the postemergence treatment. Treated plants and untreated controls were maintained in a greenhouse for approximately ten days, after which time all treated plants were compared to untreated controls and visually evaluated for injury. Plant response ratings, summarized in Table A, are based on a 0 to 100 scale where 0 is no effect and 100 is complete control. A dash (-) response means no test result.

corn (Zea mays) = experiment: Test A pre-/postemergence plant response
From the text: as §1, §2

[2] = system: giant foxtail (Setaria faberii); experiment: Test A pre-/postemergence plant response
From the text: as §1, §2

[3] = system: large crabgrass (Digitaria sanguinalis); experiment: Test A pre-/postemergence plant response
From the text: as §1, §2

[4] = system: morningglory (Ipomoea spp.); experiment: Test A pre-/postemergence plant response
From the text: as §1, §2

[5] = system: pigweed (Amaranthus retroflexus); experiment: Test A pre-/postemergence plant response
From the text: as §1, §2

[6] = system: velvetleaf (Abutilon theophrasti); experiment: Test A pre-/postemergence plant response
From the text: as §1, §2

[7] = system: wheat (Triticum aestivum); experiment: Test A pre-/postemergence plant response
From the text: as §1, §2

[8] = system: barnyardgrass (Echinochloa crus-galli); experiment: Test B flooded paddy test; conditions: for Plant response rating, Flood, Barnyardgrass: 250 g ai/ha, flooded paddy test, visual rating on 0 to 100 scale (0 no effect, 100 complete control) after 13 to 15 days; for Plant response rating, Barnyardgrass: Flood (flooded paddy test), 13 to 15 days; for Barnyardgrass plant response rating: Flood, 31 g ai/ha, scale 0 to 100 (0 no effect, 100 complete control)
From the text: (§3) Plant species in the flooded paddy test consisted of rice (Oryza sativa), umbrella sedge (Cyperus difformis), ducksalad (Heteranthera limosa) and barnyardgrass (Echinochloa crus-galli) grown to the 2-leaf stage for testing. At the time of treatment, test pots were flooded with water to 3 cm above the soil surface, treated by application of test compounds directly to the paddy water, and then maintained at that water depth for the duration of the test.
(§4) Treated plants and controls were maintained in a greenhouse for 13 to 15 days, after which time all treated plants were visually evaluated and compared to controls. Plant response ratings, summarized in Table B, are based on a scale of 0 to 100 where 0 is no effect and 100 is complete control. A dash (-) response means no test result.

[9] = system: ducksalad (Heteranthera limosa); experiment: Test B flooded paddy test; conditions: for Plant response rating, Flood, Ducksalad: 250 g ai/ha, flooded paddy test, visual rating on 0 to 100 scale (0 no effect, 100 complete control) after 13 to 15 days; for Plant response rating, Ducksalad: Flood (flooded paddy test), 13 to 15 days; for Ducksalad plant response rating: Flood, 31 g ai/ha, scale 0 to 100 (0 no effect, 100 complete control)
From the text: as §3, §4

rice (Oryza sativa) = experiment: Test B flooded paddy test; conditions: for Plant response rating, Flood, Rice: 250 g ai/ha, flooded paddy test, visual rating on 0 to 100 scale (0 no effect, 100 complete control) after 13 to 15 days; for Plant response rating, Rice: Flood (flooded paddy test), 13 to 15 days; for Rice plant response rating: Flood, 31 g ai/ha, scale 0 to 100 (0 no effect, 100 complete control)
From the text: as §3, §4

[10] = system: umbrella sedge (Cyperus difformis); experiment: Test B flooded paddy test; conditions: for Plant response rating, Flood, Sedge, Umbrella: 250 g ai/ha, flooded paddy test, visual rating on 0 to 100 scale (0 no effect, 100 complete control) after 13 to 15 days; for Plant response rating, Sedge, Umbrella: Flood (flooded paddy test), 13 to 15 days; for Sedge, Umbrella plant response rating: Flood, 31 g ai/ha, scale 0 to 100 (0 no effect, 100 complete control)
From the text: as §3, §4

[11] = Postemergence, 125 g ai/ha, 0 to 100 scale where 0 is no effect and 100 is complete control
[12] = Postemergence, 500 g ai/ha, visual injury, 0 to 100 scale (0 no effect, 100 complete control), approx. ten days
[13] = Preemergence, 125 g ai/ha, 0 to 100 scale where 0 is no effect and 100 is complete control, approximately ten days
[14] = Preemergence, 500 g ai/ha, 0 to 100 scale, 0 = no effect, 100 = complete control
[15] = Postemergence, 125 g ai/ha, visual injury, 0 to 100 scale (0 no effect, 100 complete control), approx. ten days
[16] = 62 g ai/ha, scale of 0 to 100 where 0 is no effect and 100 is complete control
[17] = 125 g ai/ha, scale 0 to 100, 0 is no effect, 100 is complete control
[18] = Postemergence, 500 g ai/ha, 0 to 100 scale, 0 = no effect, 100 = complete control, approx. ten days
[19] = Preemergence, 125 g ai/ha, 0 to 100 scale, 0 = no effect, 100 = complete control
[20] = Preemergence, 500 g ai/ha, visual injury, 0 to 100 scale (0 no effect, 100 complete control), approx. ten days
[21] = 62 g ai/ha, scale 0 to 100, 0 is no effect, 100 is complete control

O=C(C1=C(O)C2CCC(C2)C1=O)c1cnc(-c2cc(F)c(F)c(F)c2)n(C2CCCCC2)c1=O (stereo not drawn) [Compound 251]
50: Plant response rating, Foxtail, Giant [2, 15] | Plant response rating, Crabgrass, Large [3, 11] | Plant response rating, Velvetleaf [6, 13] | Plant response rating, Ducksalad [9, 17] | Plant response rating, Sedge, Umbrella [10, 16]
75: Plant response rating, Flood, Sedge, Umbrella [10]
40: Plant response rating, Foxtail, Giant [2, 14] | Plant response rating, Morningglory [4, 14]
90: Foxtail, Giant plant response rating [2, 12] | Crabgrass, Large plant response rating [3, 12]
65: Plant response rating, Sedge, Umbrella [10, 17]
60: Plant response rating, Pigweed [5, 14]
100: Barnyardgrass plant response rating [1, 12] | Plant response rating, Morningglory [4, 15] | Morningglory plant response rating [4, 12] | Plant response rating, Velvetleaf [6, 15] | Velvetleaf plant response rating [6, 12]
70: Plant response rating, Pigweed [5, 15] | Plant response rating, Velvetleaf [6, 14]
20: Plant response rating, Barnyardgrass [1, 14] | Corn plant response rating (corn (Zea mays); [12]) | Plant response rating, Crabgrass, Large [3, 13] | Plant response rating, Flood, Barnyardgrass [8]
0: Plant response rating, Barnyardgrass [1, 13] | Plant response rating, Corn (corn (Zea mays); [11]) | Plant response rating, Corn (corn (Zea mays); [13]) | Plant response rating, Corn (corn (Zea mays); [14]) | Plant response rating, Morningglory [4, 13] | Plant response rating, Pigweed [5, 13] | Plant response rating, Wheat [7, 15] | Plant response rating, Wheat [7, 13] | Plant response rating, Wheat [7, 14] | Plant response rating, Barnyardgrass [8, 16] | Plant response rating, Barnyardgrass [8, 17] | Barnyardgrass plant response rating [8] | Plant response rating, Ducksalad [9, 16] | Ducksalad plant response rating [9] | Plant response rating, Rice (rice (Oryza sativa); [16]) | Plant response rating, Rice (rice (Oryza sativa); [17]) | Rice plant response rating (rice (Oryza sativa)) | Sedge, Umbrella plant response rating [10]
10: Plant response rating, Foxtail, Giant [2, 13] | Wheat plant response rating [7, 12] | Plant response rating, Flood, Rice (rice (Oryza sativa))
80: Plant response rating, Barnyardgrass [1, 11] | Plant response rating, Crabgrass, Large [3, 14] | Pigweed plant response rating [5, 12] | Plant response rating, Flood, Ducksalad [9]

CSc1ncc(C(=O)C2=C(O)CCCC2=O)c(=O)n1-c1ccccc1 [Compound 30]
100: Velvetleaf plant response rating [6, 15]
60: Plant response rating, Crabgrass, Large [3, 18] | Plant response rating, Crabgrass, Large [3, 20] | Plant response rating, Morningglory [4, 20]
80: Plant response rating, Pigweed [5, 18] | Plant response rating, Pigweed [5, 20]
50: Plant response rating, Morningglory [4, 18] | Plant response rating, Flood, Ducksalad [9] | Plant response rating, Flood, Sedge, Umbrella [10]
20: Plant response rating, Velvetleaf [6, 19] | Plant response rating, Ducksalad [9, 21] | Plant response rating, Sedge, Umbrella [10, 21]
0: Plant response rating, Barnyardgrass [1, 19] | Corn plant response rating (corn (Zea mays); [15]) | Plant response rating, Corn (corn (Zea mays); [18]) | Plant response rating, Corn (corn (Zea mays); [19]) | Plant response rating, Corn (corn (Zea mays); [20]) | Plant response rating, Foxtail, Giant [2, 19] | Plant response rating, Crabgrass, Large [3, 19] | Plant response rating, Morningglory [4, 19] | Plant response rating, Pigweed [5, 19] | Wheat plant response rating [7, 15] | Plant response rating, Wheat [7, 18] | Plant response rating, Wheat [7, 19] | Plant response rating, Wheat [7, 20] | Plant response rating, Flood, Barnyardgrass [8] | Plant response rating, Barnyardgrass [8, 21] | Plant response rating, Flood, Rice (rice (Oryza sativa)) | Plant response rating, Rice (rice (Oryza sativa); [21])
10: Barnyardgrass plant response rating [1, 15] | Foxtail, Giant plant response rating [2, 15] | Plant response rating, Foxtail, Giant [2, 20]
30: Plant response rating, Barnyardgrass [1, 18] | Crabgrass, Large plant response rating [3, 15] | Morningglory plant response rating [4, 15]
40: Plant response rating, Barnyardgrass [1, 20] | Plant response rating, Foxtail, Giant [2, 18]
70: Pigweed plant response rating [5, 15] | Plant response rating, Velvetleaf [6, 20]

COc1ccc(-n2c(-c3cccc(F)c3)ncc(C(=O)C3=C(O)CCCC3=O)c2=O)cc1 [Compound 203]
0: Plant response rating, Corn (corn (Zea mays); [11]) | Plant response rating, Corn (corn (Zea mays); [19]) | Plant response rating, Morningglory [4, 19] | Plant response rating, Wheat [7, 11] | Plant response rating, Wheat [7, 19] | Plant response rating, Barnyardgrass [8, 16] | Plant response rating, Barnyardgrass [8, 17] | Barnyardgrass plant response rating [8] | Plant response rating, Flood, Rice (rice (Oryza sativa)) | Plant response rating, Rice (rice (Oryza sativa); [16]) | Plant response rating, Rice (rice (Oryza sativa); [17]) | Rice plant response rating (rice (Oryza sativa)) | Sedge, Umbrella plant response rating [10]
65: Plant response rating, Sedge, Umbrella [10, 16]
40: Ducksalad plant response rating [9]
95: Plant response rating, Flood, Ducksalad [9] | Plant response rating, Ducksalad [9, 17]
50: Plant response rating, Velvetleaf [6, 19]
75: Plant response rating, Ducksalad [9, 16] | Plant response rating, Sedge, Umbrella [10, 17]
20: Plant response rating, Corn (corn (Zea mays); [14]) | Plant response rating, Crabgrass, Large [3, 19] | Plant response rating, Flood, Barnyardgrass [8]
100: Barnyardgrass plant response rating [1, 12] | Plant response rating, Morningglory [4, 11] | Morningglory plant response rating [4, 12] | Plant response rating, Pigweed [5, 11] | Pigweed plant response rating [5, 12] | Plant response rating, Pigweed [5, 19] | Plant response rating, Pigweed [5, 14] | Velvetleaf plant response rating [6, 12]
30: Plant response rating, Barnyardgrass [1, 19] | Corn plant response rating (corn (Zea mays); [12]) | Plant response rating, Foxtail, Giant [2, 11] | Plant response rating, Foxtail, Giant [2, 19] | Plant response rating, Crabgrass, Large [3, 11] | Wheat plant response rating [7, 12] | Plant response rating, Wheat [7, 14]
80: Plant response rating, Barnyardgrass [1, 11] | Foxtail, Giant plant response rating [2, 12] | Plant response rating, Velvetleaf [6, 14]
85: Plant response rating, Flood, Sedge, Umbrella [10]
70: Plant response rating, Barnyardgrass [1, 14] | Crabgrass, Large plant response rating [3, 12] | Plant response rating, Crabgrass, Large [3, 14] | Plant response rating, Morningglory [4, 14]
90: Plant response rating, Foxtail, Giant [2, 14] | Plant response rating, Velvetleaf [6, 11]
